Common to all, as to type: biochemical
Settings in all cases: acryloyl-CoA made in situ by D. shibae PrpE from 0.5 mM acrylate, CoA and ATP; 1 uM RdAcuH, 5 min, 5 mM MgCl2, 100 mM Tris-HCl pH 8.0

Assay [1] concerns the target T1, RdAcuH (Roseovarius nubinhibens, UniProt A3SKA6).
T1 construct: gene ISM_05820; no signal peptide; pET-22b (NdeI/XhoI) in E. coli BL21(DE3), Ni-NTA purified; active site between NTD of one subunit and CTD of the neighbouring subunit
T1 sequence (A3SKA6 1-258): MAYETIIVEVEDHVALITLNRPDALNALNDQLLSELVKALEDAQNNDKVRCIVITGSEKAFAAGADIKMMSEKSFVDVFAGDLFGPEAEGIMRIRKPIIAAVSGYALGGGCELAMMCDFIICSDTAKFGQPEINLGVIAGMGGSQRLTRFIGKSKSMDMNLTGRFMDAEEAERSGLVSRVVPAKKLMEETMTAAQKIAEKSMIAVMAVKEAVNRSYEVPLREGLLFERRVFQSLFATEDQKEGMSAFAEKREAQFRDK
The assay can be described thus: HPLC / LC-MS of hydration to 3-HP-CoA.

Assay [2] deals with T2, RdAcuH (Roseovarius nubinhibens, UniProt A3SKA6, E132A).
T2 construct: gene ISM_05820; no signal peptide; pET-22b (NdeI/XhoI) in E. coli BL21(DE3), Ni-NTA purified; active site between NTD of one subunit and CTD of the neighbouring subunit
T2 sequence (A3SKA6 entry or part of it E132A): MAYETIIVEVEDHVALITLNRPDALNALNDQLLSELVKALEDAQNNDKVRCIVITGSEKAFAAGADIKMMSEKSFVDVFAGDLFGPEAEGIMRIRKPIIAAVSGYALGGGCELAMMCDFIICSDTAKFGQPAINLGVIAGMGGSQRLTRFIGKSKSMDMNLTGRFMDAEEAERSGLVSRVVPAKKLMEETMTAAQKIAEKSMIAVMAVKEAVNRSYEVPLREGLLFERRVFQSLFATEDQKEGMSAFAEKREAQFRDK
The assay can be described thus: relative activity, 3-HP-CoA formation by HPLC / LC-MS.

Assay [3] has as its target T3, RdAcuH (Roseovarius nubinhibens, UniProt A3SKA6, E112A).
T3 construct: gene ISM_05820; no signal peptide; pET-22b (NdeI/XhoI) in E. coli BL21(DE3), Ni-NTA purified; active site between NTD of one subunit and CTD of the neighbouring subunit
The assay is described as above.

T3 sequence (A3SKA6 entry or part of it E112A): as the sequence (A3SKA6 entry or part of it E132A) above, with E112A, A132E counted along it

For the molecule `CC(C)(COP(=O)(O)OP(=O)(O)OC[C@H]1O[C@@H](n2cnc3c(N)ncnc32)[C@H](O)[C@@H]1OP(=O)(O)O)[C@@H](O)C(=O)NCCC(=O)NCCSC(=O)CCO` [3-HP-CoA], in assay [1], the “HPLC / LC-MS of hydration to 3-HP-CoA” value was “RdAcuH has acryloyl-CoA hydratase activity and can catalyze acryloyl-CoA to 3-HP-CoA”.
Take `C=CC(=O)SCCNC(=O)CCNC(=O)[C@H](O)C(C)(C)COP(=O)(O)OP(=O)(O)OC[C@H]1O[C@@H](n2cnc3c(N)ncnc32)[C@H](O)[C@@H]1OP(=O)(O)O` [acryloyl-CoA]: the “HPLC / LC-MS of hydration to 3-HP-CoA” value in assay [1] was “acryloyl-CoA was hydrated by RdAcuH and 3-HP-CoA was produced”. Also, the relative activity entry in assay [2] and in assay [3] was “mutations on each of the glutamates to alanine resulted in the inactivation of RdAcuH” in each case.

These data come from PMC5651017, “Molecular Insight into the Acryloyl-CoA Hydration by AcuH for Acrylate Detoxification in Dimethylsulfoniopropionate-Catabolizing Bacteria” (Frontiers in Microbiology, 2017).
